From patent US12686666B2, “Triazine compound salt, crystal form thereof, and production method therefor” (TANABE PHARMA CORPORATION, priority 2020, dated 2026)

Tests used:
[1] = Thermal stability evaluation (TG/DTA weight change); assay type: physicochemical; conditions: for Thermal stability TG: weight change: 25-274° C.
Method: (§1) Thermal stability was measured and evaluated by using a thermogravimetry/differential thermal analyzer TG/DTA7200 (SII NanoTechnology Inc.) under the following conditions. • Rate of temperature increase: 10° C./min • Range of temperature increase: 25 to 300° C. • Atmosphere: nitrogen 200 mL/min <Hygroscopicity or Deliquescency Evaluation>
as §1, with “Inc.) under the following conditions • Rate of temperature increase: 10° C./min • Range of temperature increase: 30 to 300° C. • Atmosphere: nitrogen 200 mL/min • or • using a TGA/DSC1 thermogravimetric analyzer (manufactured by Mettler Toledo, STARe system)” for “Inc.)”, “nitrogen 50” for “nitrogen 200”

[2] = Hygroscopicity or deliquescency evaluation (moisture adsorption, DVS); assay type: physicochemical
Method: Hygroscopicity or deliquescency was evaluated as follows by using a moisture adsorption measurement device DVS-1 or DVS-intrinsic (Surface Measurement Systems Limited). Each sample (about 5 mg) was placed into an aluminum plate of which the tare weight had been corrected in advance, and the plate was hung on the precision balance of said device to precisely measure the weight at the start of measurement. The humidity was changed in a stepwise manner in a chamber at 25° C., the weight change was recorded with time, and the equilibrium weight was calculated at each humidity. On the basis of the weight at a dried condition (0% RH), the weight change rate and hydration number at each humidity were calculated.
Hygroscopicity or deliquescency was evaluated as follows by using a moisture adsorption measurement device DVS-1 or DVS-intrinsic (Surface Measurement Systems Limited). Each sample was placed into a cell of which the tare weight had been corrected in advance, and the cell was hung on the precision balance of said device to precisely measure the weight at the start of measurement. The humidity was changed in a stepwise manner, the weight change was recorded with time, and the equilibrium weight was calculated at each humidity. On the basis of the weight of anhydride converted from the amount of water at a dried condition (0% RH) or at the start of measurement observed by an alternative method, the weight change rate at each humidity was calculated.

[3] = Chemical stability evaluation (storage 1 week, liquid chromatography peak area %); assay type: physicochemical; conditions: did not show a significant increase of related substances
Method: Each about 1 mg of a sample stored at 60° C. (sealed) or 60° C./75% RH (open) for 1 week and an unstored sample (at the start of test) was dissolved into a mixed solution of acetonitrile/water (1:1) (5 mL) to obtain each sample solution. A test was carried out by liquid chromatographic method under the following conditions to measure each peak area (%).
Each peak area (%) was measured by using Waters ACQUITY UPLC under the following conditions. • Detector: Photodiode array (measurement wavelength: 239 nm) • Column: Waters ACQUITY BEH C18 (2.1 mm×100 mm, 1.7 μm) • Column temperature: constant temperature about 40° C. • Mobile phase: Solution A; water/TFA (2000:1), Solution B; Acetonitrile/TFA (2000:1) • Concentration gradient control: B % 2→100% (15 minutes) • Flow rate: 0.5 mL/min • Injection volume: 2 μL
Each sample was stored at 60° C. under a sealed condition and at 60° C. under 75% RH for 1 week, and an increase or decrease of related substance(s) after the storage was calculated by high-performance liquid chromatographic method on the basis of the area percentage of each peak. Also, the condition of each sample after the storage was observed.

[4] = Pharmacokinetics in dogs treated with a promotor (pentagastrin) or an inhibitor (omeprazole) of gastric acid secretion; assay type: in vivo, dogs (male beagle); conditions: dog; for Cmax / AUC(0-inf) / AUC(0-t) / Tmax / half-life: male, beagle, plasma, po, 10 mg, fasted, mean; for Cmax: oral 10 mg/capsule (free form equivalent); for AUC(0-inf) / AUC(0-t) / Tmax / half-life: oral 10 mg/capsule
Method: The pharmacokinetics of hydrobromide of the Triazine compound A and the Triazine compound A under gastric acid secretion and gastric pH adjustment was evaluated by using dogs treated with a promotor of gastric acid secretion or an inhibitor of gastric acid secretion according to a crossover method of 2 groups with 4 phases.
Pentagastrin was used in the treatment of a promotor of gastric acid secretion. Pentagastrin (2.8 mg) was dissolved into dimethylsulfoxide (7.0 mL) and water for injection (7.0 mL) to prepare an administration solution, and administered into a muscle in the thigh at a dose of […]. Pentagastrin was administered 0.5 hour before and 0.5 hour after the administration of each test material (hydrobromide of the Triazine compound A (Compound 1 prepared in Example 1) or the Triazine compound A (Compound 10 prepared in Example 1)). Omeprazole was used in the treatment of an inhibitor of gastric acid secretion. Omeprazole (90 mg) was dissolved into a 1:1 mixed solution (22.5 mL) of a 0.1% aqueous solution of sodium hydrogen carbonate (w/v) and polyethyleneglycol 400 to prepare an administration solution, and administered into a saphenous vein of the hind limb at a dose of 1 mg/0.25 mL/kg. Omeprazole was administered 1 hour before the administration of each test material.
After 25 mL of water for injection was administered to each dog by using a syringe having an oral catheter, the hydrobromide of the Triazine compound A or the Triazine compound A was forcedly orally administered to each dog at a dose of 10 mg/capsule (in case of hydrobromide of the Triazine compound A, free form equivalent (i.e., 10 mg in terms of the Triazine compound A)), and additional 25 mL of water for injection was administered to each dog through the syringe having an oral catheter. Each test material was administered under fasting state, and each dog was fed 6 hours after the administration. Each dog was deprived of water from 1 hour before the administration of each test material to 2 hours after the administration.
Tests were carried out by using 6 heads of 4 year-old male beagle and dividing them into two groups, each of which comprises 3 heads. The dogs in Group 1 were subjected to the administration in the order of (Phase 1) omeprazole administration, then the Triazine compound A administration, (Phase 2) omeprazole administration, then the hydrobromide of the Triazine compound A administration, (Phase 3) pentagastrin administration, then the Triazine compound A administration, and (Phase 4) pentagastrin administration, then the hydrobromide of the Triazine compound A administration, and the dogs in Group 2 were subjected to the administration in the order of (Phase 1) omeprazole administration, then the hydrobromide of the Triazine compound A administration, (Phase 2) omeprazole administration, then the Triazine compound A administration, (Phase 3) pentagastrin administration, then the hydrobromide of the Triazine compound A administration, and (Phase 4) pentagastrin administration, then the Triazine compound A administration, and washout period between each phase was 6 or 7 days. After 15 minutes, 30 minutes, 1, 2, 4, 6, 8, and 24 hour(s) from the administration of the hydrobromide of the Triazine compound A or the Triazine compound A, 0.6 mL of whole blood sample was collected under awakening of each dog from a cephalic vein by using a heparin sodium injection. The whole blood sample was processed into a plasma, and the drug concentration of the Triazine compound A was analyzed by using liquid chromatography-tandem mass spectrometry (LC-MS/MS). […]

human CYP11B2 = target: T1, human CYP11B2 (Homo sapiens, UniProt P19099); assay: Aldosterone synthase (CYP11B2) inhibitory activity measurement; assay type: biochemical; conditions: mitochondrial fraction of V79 cells expressing human CYP11B2; deoxycorticosterone substrate; HTRF; read-out: IC50 (aldosterone production inhibition)
T1 construct: expressed in transfected cells; the mitochondrial fraction was used
T1 sequence (P19099 25-503): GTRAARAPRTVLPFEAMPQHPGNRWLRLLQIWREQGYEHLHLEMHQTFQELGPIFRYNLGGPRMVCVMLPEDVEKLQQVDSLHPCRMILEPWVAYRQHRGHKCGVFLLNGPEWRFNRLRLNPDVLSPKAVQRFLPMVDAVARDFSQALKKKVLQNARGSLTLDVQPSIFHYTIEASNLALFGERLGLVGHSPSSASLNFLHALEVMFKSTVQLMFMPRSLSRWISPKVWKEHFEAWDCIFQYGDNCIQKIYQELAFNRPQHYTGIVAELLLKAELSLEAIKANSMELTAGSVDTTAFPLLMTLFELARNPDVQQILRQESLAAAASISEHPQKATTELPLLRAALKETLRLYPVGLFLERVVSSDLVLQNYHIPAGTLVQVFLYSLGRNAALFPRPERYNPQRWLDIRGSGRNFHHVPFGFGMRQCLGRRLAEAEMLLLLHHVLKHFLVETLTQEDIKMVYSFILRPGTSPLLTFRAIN
Method: The pcDNA3.1-human CYP11B2 plasmid was transfected into a Chinese hamster lung fibroblast V79 cell line to produce a cell line stably expressing a human CYP11B2 gene.
The cells were cultured and grown in the Dulbecco's modified Eagle's/Ham's medium supplemented with 10% fetal bovine serum and 1% G418 disulfate solution under the environment of 37° C., 95% air, and 5% CO2, and the grown cells were harvested.
Then, the cells were fractionated to obtain mitochondria by reference to a method described in Chabre et al. JCE & M 85 (11) 4060-68, 2000. In particular, the cells suspended in a 5 mmol/L Tris-HCl buffer (pH 7.4) containing 250 mmol/L sucrose were homogenized in a Teflon (registered trademark) Potter Elvehjem homogenizer, and then the suspension was centrifuged (800×g, 15 min). […]
The mitochondrial fraction diluted with a buffer containing 10 mmol/L KH2PO4, 10 mmol/L Tris, 20 mmol/L KCl, 25 mmol/L sucrose, 5 mmol/L MgCl2, and 0.05% bovine serum albumin was dispensed to a 96 well plate. […] The amount of the produced aldosterone in the incubated solution was determined by using HTRF (Homogeneous Time Resolved Fluorescence) method.
IC50 (nmol/L) was calculated by analyzing the aldosterone production inhibition rate (%) of each concentration of the Triazine compound A of the present invention by non-linear regression to a logistic curve.

[5] = Omeprazole, reduced gastric acid secretion
[6] = Pentagastrin, increased gastric acid secretion

SMILES: Br.CC(=O)N[C@H]1CC[C@H](NC(=O)CN2CCN(c3nncc(-c4ccc(C)cc4)n3)CC2)CC1 [Hydrobromide Form A crystal, 3-[4-[[trans-4-(acetamino)cyclohexyl]carbamoylmethyl]piperazin-1-yl]-5-(p-tolyl)-1,2,4-triazine hydrobromide]
- Thermal stability TG: weight change [1]: 0.9%
- Thermal stability TG: weight change ([1]; Table 10): 0.98
- Thermal stability, conclusion in words ([1]; did not show a significant weight change (Succinate Form A: at 25 to 148° C., melting point)): excellent thermal stability
- Hygroscopicity or Deliquescency Weight change at 90% RH ([2]; Table 5, 25° C., relative to weight at 0% RH): 1.0%
- Hygroscopicity or Deliquescency Weight change at 90% RH ([2]; Table 10, *1 with hydration stage): 1.0% ^
- Hygroscopicity or deliquescency, conclusion in words ([2]; from Table 5): excellent in the reduced hygroscopicity or deliquescency
- Chemical stability, conclusion in words [3]: excellent chemical stability
- Change of plasma concentration with the gastric acid conditions ([4]; oral 10 mg free form equivalent, pentagastrin vs omeprazole): not changed
- Cmax [4, 5]: 256 ng/mL
- Cmax [4, 6]: 263 ng/mL
- AUC(0-inf) [4, 5]: 2030 ng·h/mL
- AUC(0-t) [4, 5]: 1990 ng·h/mL
- Tmax [4, 5]: 1.83 h
- half-life [4, 5]: 4.3 h
- AUC(0-inf) [4, 6]: 2020 ng·h/mL
- AUC(0-t) [4, 6]: 1990 ng·h/mL
- Tmax [4, 6]: 1.67 h
- half-life [4, 6]: 4.24 h

SMILES: CC(=O)N[C@H]1CC[C@H](NC(=O)CN2CCN(c3nncc(-c4ccc(C)cc4)n3)CC2)CC1 [Triazine compound A, 3-[4-[[trans-4-(acetamino)cyclohexyl]carbamoylmethyl]piperazin-1-yl]-5-(p-tolyl)-1,2,4-triazine]
- Reduction of AUC under reduced gastric acid conditions as compared to increased gastric acid secretion conditions ([4]; oral 10 mg): about 50%
- Reduction of Cmax under reduced gastric acid conditions as compared to increased gastric acid secretion conditions ([4]; oral 10 mg): about 50%
- Cmax [4, 5]: 102 ng/mL
- Cmax [4, 6]: 222 ng/mL
- AUC(0-inf) [4, 5]: 1000 ng·h/mL
- AUC(0-t) [4, 5]: 943 ng·h/mL
- Tmax [4, 5]: 3.33 h
- half-life [4, 5]: 5.6 h
- AUC(0-inf) [4, 6]: 1910 ng·h/mL
- AUC(0-t) [4, 6]: 1690 ng·h/mL
- Tmax [4, 6]: 1.42 h
- half-life [4, 6]: 4.26 h
- IC50 (human CYP11B2): 9 nM
